“And” between values parts separate entries of the source, which are not always exact repeats. Equal values may be shown once. “Also recorded” adds a separate entry of the source.
Assays:
[1] = test system: human sense of taste; experiment: Lab taste test (sip, spit, rinse) of sweetener solutions containing phloroglucinol against reference sweetener solutions; format: in vivo
Procedure: (§1) General Tasting Procedure: Unless otherwise specified in a given example, tastings were performed by a single taster using a “sip, spit, rinse” protocol. Under this protocol, the taster: • a. sipped up to about 10 ml of a given solution and assessed the sweetness, mouthfeel, and other characteristics of the solution during its residence in the taster's mouth; • b. spit out the solution after making the assessment; and • c. rinsed with water to cleanse the palate before testing any further samples.
Reference solutions: 5%, 7%, and 9% aqueous sucrose (sugar) solutions were prepared.
Reference solutions: 5%, 7%, and 9% aqueous sucrose solutions were prepared as in Example 1.
Reference solutions: 5%, 7%, 8% and 9% sucrose solutions in aqueous pH 3.0 citrate buffer solutions (citric acid 2.26 g plus trisodium citrate 0.32 g in 2 L water) were prepared.
Reference solutions: 2.5%, 3.5%, and 4% aqueous fructose (Sigma) solutions were prepared.
Reference solutions: 5%, 7%, 8% and 9% aqueous glucose (Sigma) solutions were prepared.
Reference solutions: 5%, 6%, 7%, 8% and 9% aqueous sucrose solutions were prepared. […] The variants were then tasted and assessed for their similarity to the reference solutions.
Reference solutions: 8%, 9%, 10%, and 11% aqueous sucrose solutions were prepared.
Reference solutions: 250 ppm and 320 ppm aqueous rebaudioside A solutions were prepared.

[2] = test system: human sense of taste; experiment: Taste of phloroglucinol in water, alone or with salt; format: in vivo
Procedure: as §1
To analyze this effect, an experiment was conducted to determine whether NaCl could be used as a supplemental sweetness enhancer.

[3] = test system: human sense of taste; experiment: Taste of sugar solutions with phloroglucinol and salt against sugar controls; format: in vivo; conditions: for phloroglucinol concentration required to achieve the sweetness of an 11% sugar solution: 8% sugar
Procedure: as §1
Half remained as a low control. Salt (300 ppm) was added to the other half (the “variant”). An 11% sugar solution was prepared as a high control.

[4] = test system: human sense of taste; experiment: Taste of sugar solutions with phloroglucinol and supplemental sweetness enhancers; format: in vivo; conditions: Example 22: 500 ppm phloroglucinol, 350 ppm rebaudioside C, 8% sugar
Procedure: as §1
Three tasters conducted taste experiments on the blends identified in the table, below.
Experiments were conducted utilizing phloroglucinol and rebaudioside C in a sugar solutions.
Two testers tasted each of solutions 1 through 5, in the table above.
Taste experiments were conducted with sugar solutions comprising phloroglucinol and one of rebaudioside B, rebaudioside M, and trilobatin as set forth in the table, below.
Two testers tasted these solutions.
Five aqueous solutions comprising sugar, phloroglucinol, and/or rubusoside were prepared as set forth in the table below and tested for sweetness.

[5] = test system: human sense of taste; experiment: Taste of beverages (cola, SIERRA MIST, diet cola) containing phloroglucinol; format: in vivo
Procedure: Sources: A bottle of cola concentrate (HFCS-55) and a bottle of concentrate having ⅓ less HFCS (the “Brix-reduced syrup”) were obtained. […] Both concentrates were then used to make cola beverages (volume 4.5 carbonated water) in a 1 plus 5 throw manner.
Experiments were conducted on a sugar reduced cola beverage. A control bottle of cola concentrate (HFCS-55) and a bottle of Brix reduced variant concentrate having 35% less HFCS than the control were used. […] Both concentrates were then used to make cola beverages with volume 4.5 carbonated water in a 1 plus 5 throw manner.
Taste experiments were conducted for a diet cola beverage. Unsweetened diet cola concentrate was used. Control syrup 1 was made by adding 3000 ppm aspartame to the concentrate. Control syrup 2 was made by adding 2400 ppm rebaudioside M to the diet cola concentrate. […] All concentrates were then used to make diet cola beverages with volume 4.5 carbonated water in a 1 plus 5 throw manner.
The finished control diet cola beverage 1 contained 500 ppm aspartame.
A total of 5 diet cola tasters evaluated the four beverages.

[6] = test system: human sense of taste; experiment: Taste of QUAKER Instant Oatmeal containing phloroglucinol; format: in vivo
Procedure: Sugar was added to unsweetened QUAKER Instant Oatmeal (IQO) Original flavor. A high sugar control comprising 8 g sugar per bag of IQO (29 g) was prepared. A low sugar control comprising 5 g sugar per bag of IQO (29 g) was also prepared. […] The high control, low control, and variant formulations were placed in individual beakers and combined with about 200 mL of hot water. The resulting mixtures were stirred and then tasted. Taste tests were conducted while the mixtures were still warm and after the mixtures had cooled to room temperature.
The high and low controls described in Example 14 were again prepared. […] The high control, low control, and variant formulations were placed in individual beakers and combined with about 200 mL of hot water. The resulting mixtures were stirred and then tasted. Tasting was performed while the IQO was warm and after the IQO cooled to room temperature.

[7] = test system: human sense of taste; experiment: Sweet taste intensity ranking by trained sensory discrimination panelists; format: in vivo
Excerpt: (§2) Panelists were asked to rank the samples in order of sweet taste intensity from low sweet to high sweet. Each panelist tasted each sample twice during the study such that each sample was judged a total of 30 times.
as §2
Panelists were asked to rank the samples in order of sweet taste intensity from low sweet to high sweet. Each panelist was presented a replicate set to render a total of 32 judgment data points.

[8] = Physicochemical properties of phloroglucinol; conditions: concentrations described; higher temperatures; sunlight
[9] = test system: human sense of taste; experiment: Taste of sugar solutions with phloroglucinol and salt against sugar controls; format: in vivo; conditions: for Taste: body compared with 8% sugar control: 5% sugar in water
[10] = Example 8: 250 ppm phloroglucinol in 250 ppm aqueous rebaudioside A
[11] = Example 10, second taster: 250 ppm rebaudioside A with 800 ppm phloroglucinol
[12] = Example 13: 800 ppm phloroglucinol in SIERRA MIST
[13] = Example 25: 400 ppm phloroglucinol in 5% sucrose
[14] = Example 26: 400 ppm phloroglucinol and 200 ppm sodium chloride in 5% sucrose
[15] = Example 27: 800 ppm phloroglucinol in 8.475% sucrose
[16] = Example 17: 800 ppm phloroglucinol, 400 ppm salt, 8% sugar in water

## Oc1cc(O)cc(O)c1 [phloroglucinol]
[1]; Example 1: 400 ppm phloroglucinol in 5% aqueous sucrose, references 5%, 7%, 9% sucrose
  sweetness, as equivalent aqueous sucrose reference solution: > 5% and ~7%
[1]; Example 2: 800 ppm phloroglucinol in 5% aqueous sucrose
  temporal profile and quality of sweet taste: sweetness of the variant took a split of a second to show but the backend seemed even sweeter; also recorded: the sweet taste was clean without lingering
[1]; Example 3: 800 ppm phloroglucinol in 5% aqueous sucrose without buffer, references 5-9% sucrose in pH 3.0 citrate buffer
  sweetness, as equivalent sucrose reference solution: ~8%
[1]; Example 3: 800 ppm phloroglucinol in 5% aqueous sucrose, references in pH 3.0 citrate buffer
  temporal profile and quality of sweet taste: sweetness of the variant took a split of a second to show but the backend seemed even sweeter; also recorded: the sweet taste was clean without lingering
[1]; Example 4: 800 ppm phloroglucinol in 2.5% aqueous fructose
  sweetness, as equivalent aqueous fructose reference solution: > 3.5% and ~4%
[1]; Example 4: 800 ppm phloroglucinol in 2.5% aqueous fructose vs 4% fructose
  temporal profile of sweet taste: the variant solution was sweeter in backend
[1]; Example 5: 800 ppm phloroglucinol in 5% aqueous glucose
  sweetness, as equivalent aqueous glucose reference solution: ~8% and < 9%
[1]; Example 6: 40, 100, 200, 400, 600, 800 ppm phloroglucinol in 5% aqueous sucrose
  dose response of apparent sweetness (FIG. 1): approximately linear correlation between phloroglucinol concentration and apparent sweetness
[1]; [10]
  sweetness, as equivalent aqueous rebaudioside A reference solution: ~320 ppm
  taste quality (backend, bitter aftertaste of rebaudioside A): a sweeter backend; also recorded: bitter aftertaste of rebaudioside A was not changed
[1]; [11]
  bitterness of the variant solution: did not change
  sweetness, as equivalent rebaudioside A reference solution: ~320 ppm
[1]; Examples 2, 10: 800 ppm phloroglucinol in 5% aqueous sucrose, references 5%, 7%, 9% sucrose
  sweetness, as equivalent aqueous sucrose reference solution: > 7% and < 9% and ~8%
[1]; Examples 7, 10, 11: 800 ppm phloroglucinol in 8% aqueous sucrose, first, second, third taster
  sweetness, as equivalent aqueous sucrose reference solution: > 10% and ~11% and > 11%
[2]; 300 ppm in water
  Taste: No taste
[2]; 300 ppm to 800 ppm in water
  sweet taste of phloroglucinol by itself: No sweet taste was observed; also recorded: does not have any taste
[2]; 400 ppm in water
  Taste: No taste
[2]; 400 ppm phloroglucinol, 100 ppm salt in water
  Taste: No taste
[2]; 500 ppm in water
  Taste: No taste
[2]; 500 ppm phloroglucinol, 100 ppm salt in water
  Taste: No taste
[2]; 600 ppm in water
  Taste: No taste
[2]; 600 ppm phloroglucinol, 100 ppm salt in water
  Taste: No taste
[2]; 600 ppm phloroglucinol, 400 ppm salt in water
  Taste, estimated sugar equivalent: ~1% sugar
[2]; 800 ppm in water
  Taste: No taste
[2]; Example 15: with sodium chloride
  taste of phloroglucinol in the presence of salt: slightly sweet
[3]; in the presence of 300 ppm salt
  phloroglucinol concentration required to achieve the sweetness of an 11% sugar solution: 500 ppm
[3]; no salt
  phloroglucinol concentration required to achieve the sweetness of an 11% sugar solution: 800 ppm
[3]; Example 15 variant 2: 8% sugar, 500 ppm phloroglucinol, 300 ppm salt
  sweetness, as equivalent sugar solution: 11 % sugar
[3]; Example 15 variant: 8% sugar, 300 ppm phloroglucinol, 300 ppm salt
  sweetness compared with low control (no salt) and 11% sugar high control: much sweeter than the low control, but not quite as sweet as the high control
[4]
  combination effect with rebaudioside C: synergistic
[5]; Example 12: 1/3 less HFCS (8 Brix without phloroglucinol), 800 ppm phloroglucinol
  sweetness of variant cola beverage compared with control cola (11.3 Brix): equal
[5]; Example 12: 1/3 less HFCS, 800 ppm phloroglucinol
  mouthfeel and flavor of variant cola beverage: good mouthfeel; also recorded: more sour but with less caramel sweet flavor
[5]; Example 12 cola, stored at 90° F. for 18 days
  sweetness after storage: sweetness remained about the same
[5]; [12]
  body and sourness: good body; also recorded: Sourness was about the same
  sweetness compared with untreated control: much sweeter than the control
[5]; Example 19: 35% less HFCS (7.5 Brix), 400 ppm phloroglucinol and 1% D-psicose
  sweetness of variant cola beverage compared with control cola (11.3 Brix): equal
[5]; Example 19: 400 ppm phloroglucinol and 1% D-psicose
  mouthfeel of variant cola beverage: very good mouthfeel
[6]; Example 14: 5 g sugar and 137 mg phloroglucinol per bag of IQO (29 g), warm and room temperature
  sweetness compared with low control (5 g sugar) and high control (8 g sugar): sweeter than the low control but not quite as sweet as the high control
[6]; Example 21: 5 g sugar, 100 mg phloroglucinol, 1 g D-psicose per bag of IQO (29 g)
  sweetness compared with high control (8 g sugar): sweetness similar to the high control
[7]; [13]
  sweet taste increased to, as sucrose equivalent: approximately 6.4%
  sweetness enhancement: approximately 28%
[7]; [14]
  sweet taste increased to, as sucrose equivalent: approximately 6.6%
  sweetness enhancement: approximately 32%
[7]; [15]
  statistical comparison with 11.3% sucrose solution: statistically indistinguishable from the 11.3% solution
  sweet taste increased to, as sucrose equivalent: approximately 11.76%
  sweetness enhancement: about 39%
[8]
  stability in solution: stable and does not precipitate out of solution at the concentrations described herein, or break down at higher temperatures or when exposed to sunlight
[9]; 600 ppm phloroglucinol, 400 ppm salt
  Taste: body compared with 8% sugar control: more body
[9]; 800 ppm phloroglucinol, 400 ppm salt
  Taste: body compared with 8% sugar control: more body
[9]; Example 17: 600 ppm phloroglucinol, 600 ppm salt, 8% sugar in water
  Taste: sweet taste as sugar equivalent: ≥ 11 % sugar
[9]; [16]
  Taste: body: high body
  Taste: sweet taste as sugar equivalent: 12 % sugar
[9]; Example 17: 800 ppm phloroglucinol, no salt, 8% sugar in water
  Taste: sweet taste as sugar equivalent: 11 % sugar
[9]; Example 17: 800 ppm phloroglucinol, no salt, 8% sugar in water, listed as Phloroglucinol
  Taste: sweet taste as sugar equivalent: ~11% sugar

Reference: patent US10932483B2, “Sweetness enhancer” (PepsiCo, Inc., priority 2014, dated 2021)
